Assay [1] has as its system Serratia marcescens expressing IMP-1 (CL5741). The assay is described as follows: Antibiotic potentiation activity: synergistic concentration (MITC95) with imipenem, growth by OD600. The assay is classed as cell-based. To be noted: 95% inhibition of bacterial growth, strain CL5741. The procedure, abridged:
(§1)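 Strains grown overnight at 35° C, resuspended in saline, diluted 1:100 into 1.1×CAMHB; imipenem at 1 μg/ml or 4 μg/ml with test compound 200 μM to 0.195 μM. Incubated 22 hours to 24 hours at 35° C, OD600 read; MITC95 is lowest compound concentration inhibiting 95% of growth.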

In assay [2] the test system is Escherichia coli expressing NDM-1 (CLB30016). The assay is described as above. The assay is classed as cell-based. To be noted: 95% inhibition of bacterial growth, strain CLB30016. The procedure, abridged:
as §1

Assay [3] relates to Klebsiella pneumoniae expressing VIM-1 (IHMA599644). The assay is described as above. The assay is classed as cell-based. To be noted: 95% inhibition of bacterial growth, strain IHMA599644. The procedure, abridged:
as §1

A further assay addresses IMP-1 (Serratia marcescens, UniProt P52699). The assay is described as follows: Enzyme activity: determination of IC50, fluorescence assay with CCF2-FA substrate. The assay is classed as biochemical. To be noted: enzyme 2 pM, CCF2-FA 1.25 μM, 2 hours at 25° C.; read-out: IMP1 IC50. The method, boiled down:
(§2)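 Read-out: fluorescence, ex 405 nm / em 460 nm, after 2 h at 25° C with 1.25 μM CCF2-FA. Buffer 100 mM KH2PO4 pH 7, 0.005% Tween-20, 10 μM ZnSO4; enzyme 1 pM NDM-1, 2 pM IMP-1, 30 pM VIM-1. IC50 by 4-parameter fit.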

In another assay the target is NDM-1 (Klebsiella pneumoniae, UniProt C7C422). Described as above. To be noted: enzyme 1 pM, CCF2-FA 1.25 μM, 2 hours at 25° C.; read-out: NDM1 IC50. The assay is classed as biochemical. The method, boiled down:
as §2

The target in another assay is VIM-1 (Pseudomonas aeruginosa, UniProt A0A0F7KYQ8). The description is as above. To be noted: enzyme 30 pM, CCF2-FA 1.25 μM, 2 hours at 25° C.; read-out: VIM1 IC50. The assay is classed as biochemical. The method, boiled down:
as §2

Molecules are shown by their SMILES.

Chain of NDM-1 (C7C422 29-270, looked up, species assumed): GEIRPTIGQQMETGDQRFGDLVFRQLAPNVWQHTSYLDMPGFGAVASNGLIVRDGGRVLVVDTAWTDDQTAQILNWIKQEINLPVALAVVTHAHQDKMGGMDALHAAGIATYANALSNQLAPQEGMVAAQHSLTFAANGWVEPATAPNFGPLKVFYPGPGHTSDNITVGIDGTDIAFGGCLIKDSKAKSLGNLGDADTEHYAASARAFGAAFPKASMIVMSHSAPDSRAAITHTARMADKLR
Chain of IMP-1 (P52699 19-246, looked up, species assumed): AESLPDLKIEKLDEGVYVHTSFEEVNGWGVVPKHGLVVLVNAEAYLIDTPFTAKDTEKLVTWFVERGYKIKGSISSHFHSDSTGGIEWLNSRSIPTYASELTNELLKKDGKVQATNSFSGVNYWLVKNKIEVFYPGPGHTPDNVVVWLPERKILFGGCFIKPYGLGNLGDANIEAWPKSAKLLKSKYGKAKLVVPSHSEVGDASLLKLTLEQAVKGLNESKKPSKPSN

For orientation: IC50 means the concentration at which inhibition is half-maximal. Take `CC(C)C[C@H](C(=O)O)[C@H](Cc1ccc(-c2ccc([C@@H]3OC(=O)N[C@@H]3C)cc2)cn1)c1nn[nH]n1` [Example 173, (2S)-4-methyl-2-[(1S)-2-(5-{4-[(4R,5S)-4-methyl-2-oxo-1,3-oxazolidin-5-yl]phenyl}pyridin-2-yl)-1-(2H-tetrazol-5-yl)ethyl]pentanoic acid]: the “IMP1 SM5741 MITC95” value in assay [1] came to 31 µM. In addition, the “NDM1 EC30016 MITC95” value in assay [2] was found to be 25 µM. The “VIM1 KP599644 MITC95” value in assay [3] is above 200 µM. Also, the IC50 at IMP-1 was 500 nM; at NDM-1, 27 nM; at VIM-1, 110 nM.

Turning to `CC(C)C[C@H](C(=O)O)[C@H](Cc1ccc(-c2ccc(CN)cc2)cn1)c1nn[nH]n1` [Example 174, (2S)-2-[(1S)-2-{5-[4-(aminomethyl)phenyl]pyridin-2-yl}-1-(2H-tetrazol-5-yl)ethyl]-4-methylpentanoic acid], in assay [1], the “IMP1 SM5741 MITC95” value came out at 50 µM. Besides, in assay [2], the “NDM1 EC30016 MITC95” value was 9.4 µM. The “VIM1 KP599644 MITC95” value in assay [3] came to 25 µM. Moreover, the half-maximal inhibitory concentration (IC50) on IMP-1 was found to be 2700 nM; at NDM-1, 240 nM; at VIM-1 it was 110 nM.

For `CC(C)C[C@H](C(=O)O)[C@H](Cc1ccc(-c2ccc(S(N)(=O)=O)cc2)cn1)c1nn[nH]n1` [Example 175, (2S)-4-methyl-2-[(1S)-2-[5-(4-sulfamoylphenyl)pyridin-2-yl]-1-(2H-tetrazol-5-yl)ethyl]pentanoic acid], in assay [1], the “IMP1 SM5741 MITC95” value was 75 µM. The “NDM1 EC30016 MITC95” value in assay [2] was determined as 18.8 µM. In assay [3], the “VIM1 KP599644 MITC95” value is 50 µM. The IC50 was 840 nM at IMP-1, 19 nM on NDM-1 and 12 nM at VIM-1.

In the case of `CC(C)C[C@H](C(=O)O)[C@H](Cc1ccc(-c2ccc(N)nc2)nc1)c1nn[nH]n1` [Example 176, (2S)-2-[(1S)-2-(6′-amino-2,3′-bipyridin-5-yl)-1-(2H-tetrazol-5-yl)ethyl]-4-methylpentanoic acid], the “IMP1 SM5741 MITC95” value in assay [1] was 6.2 µM. The “NDM1 EC30016 MITC95” value in assay [2] amounted to 16 µM. Further, in assay [3], the “VIM1 KP599644 MITC95” value came to 25 µM. The results for the IC50 at IMP-1, at NDM-1 and on VIM-1 were 150 nM, 25 nM and 5.7 nM, respectively.

Take `CC(C)C[C@H](C(=O)O)[C@H](Cc1ccc(-c2ccc(CO)cc2)nc1)c1nn[nH]n1` [Example 177, (2S)-2-[(1S)-2-{6-[4-(hydroxymethyl)phenyl]pyridin-3-yl}-1-(2H-tetrazol-5-yl)ethyl]-4-methylpentanoic acid]: the “IMP1 SM5741 MITC95” value in assay [1] amounted to 4.7 µM. In addition, the “NDM1 EC30016 MITC95” value in assay [2] came out at 12.5 µM. Moreover, in assay [3], the “VIM1 KP599644 MITC95” value was 38 µM. In addition, the IC50 on IMP-1 amounted to 140 nM; at NDM-1, 40 nM; at VIM-1 it was 5.1 nM.

As for `CC(C)C[C@H](C(=O)O)[C@H](Cc1ccc(-c2ccnc(N)c2)nc1)c1nn[nH]n1` [Example 178, (2S)-2-[(1S)-2-(2′-amino-2,4′-bipyridin-5-yl)-1-(2H-tetrazol-5-yl)ethyl]-4-methylpentanoic acid], the “IMP1 SM5741 MITC95” value in assay [1] was found to be 12.5 µM. Besides, in assay [2], the “NDM1 EC30016 MITC95” value stood at 9.4 µM. Moreover, the “VIM1 KP599644 MITC95” value in assay [3] came to 25 µM. In addition, the half-inhibitory concentration (IC50) is 390 nM at IMP-1, 43 nM at NDM-1 and 2.4 nM at VIM-1.

On to `CC(C)C[C@H](C(=O)O)[C@H](Cc1ccc(-c2ccnc(N)c2)cn1)c1nn[nH]n1` [Example 179, (2S)-2-[(1S)-2-(2′-amino-3,4′-bipyridin-6-yl)-1-(2H-tetrazol-5-yl)ethyl]-4-methylpentanoic acid], for which the “IMP1 SM5741 MITC95” value in assay [1] stood at 38 µM. Besides, in assay [2], the “NDM1 EC30016 MITC95” value is 12.5 µM. Also, the “VIM1 KP599644 MITC95” value in assay [3] was 50 µM. Moreover, the concentration for half-maximal inhibition (IC50) was determined as 1300 nM on IMP-1, 66 nM on NDM-1 and 24 nM on VIM-1.

Regarding `CC(C)C[C@H](C(=O)O)[C@H](Cc1ccc(-c2ccc3c(c2)OCC(=O)N3)nc1)c1nn[nH]n1` [Example 180, (2S)-4-methyl-2-[(1S)-2-[6-(3-oxo-3,4-dihydro-2H-1,4-benzoxazin-7-yl)pyridin-3-yl]-1-(2H-tetrazol-5-yl)ethyl]pentanoic acid], the “IMP1 SM5741 MITC95” value in assay [1] was 3.1 µM. Also, the “NDM1 EC30016 MITC95” value in assay [2] is 25 µM. In addition, the “VIM1 KP599644 MITC95” value in assay [3] was found to be 50 µM. For the same compound, the IC50 at IMP-1 was found to be 130 nM; at NDM-1 it was 17 nM; at VIM-1, 1.7 nM.

Regarding `CC(C)C[C@H](C(=O)O)[C@H](Cc1ccc(C2=CCNC2)nc1)c1nn[nH]n1` [Example 181, (2S)-2-[(1S)-2-[6-(2,5-dihydro-1H-pyrrol-3-yl)pyridin-3-yl]-1-(2H-tetrazol-5-yl)ethyl]-4-methylpentanoic acid], the “IMP1 SM5741 MITC95” value in assay [1] turned out to be 100 µM. Further, the “NDM1 EC30016 MITC95” value in assay [2] was 38 µM. In addition, the “VIM1 KP599644 MITC95” value in assay [3] is 75 µM. The IC50 on IMP-1 came to 4400 nM; at NDM-1, 1000 nM; at VIM-1, 17 nM.

Turning to `CCC[C@H](C(=O)O)[C@@H](Cc1ccc(-c2ccc3c(c2)OCC(=O)N3)cn1)c1nnn[nH]1` [Example 182, (2S)-2-[(1R)-2-[5-(3-oxo-3,4-dihydro-2H-1,4-benzoxazin-7-yl)pyridin-2-yl]-1-(1H-tetrazol-5-yl)ethyl]pentanoic acid], the “IMP1 SM5741 MITC95” value in assay [1] is above 200 µM. In assay [2], the “NDM1 EC30016 MITC95” value was determined as 150 µM. Moreover, the “VIM1 KP599644 MITC95” value in assay [3] is above 200 µM. Besides, the IC50 at IMP-1 came to 16000 nM; on NDM-1 it was 1000 nM; at VIM-1, 330 nM.

In the case of `CCC[C@H](C(=O)O)[C@H](Cc1ccc(NCC2CCCN2CC)cc1)c1nn[nH]n1` (stereo partly drawn) [Example 215, (2S)-2-[(1S)-2-(4-{[(1-ethylpyrrolidin-2-yl)methyl]amino}phenyl)-1-(2H-tetrazol-5-yl)ethyl]pentanoic acid], the “IMP1 SM5741 MITC95” value in assay [1] was found to be 18.8 µM. The “NDM1 EC30016 MITC95” value in assay [2] was found to be 12.5 µM. Also, in assay [3], the “VIM1 KP599644 MITC95” value is 50 µM. Besides, the IC50 is 1100 nM on IMP-1, 170 nM at NDM-1 and 29 nM at VIM-1.

With `CCC[C@H](C(=O)O)[C@H](Cc1ccc(NCCN2CCOCC2)cc1)c1nn[nH]n1` [Example 216, (2S)-2-[(1S)-2-{4-[(2-morpholin-4-ylethyl)amino]phenyl}-1-(2H-tetrazol-5-yl)ethyl]pentanoic acid], the “IMP1 SM5741 MITC95” value in assay [1] is 18.8 µM. In addition, the “NDM1 EC30016 MITC95” value in assay [2] amounted to 31 µM. In addition, the “VIM1 KP599644 MITC95” value in assay [3] came out at 150 µM. The half-inhibitory concentration (IC50) was determined as 490 nM at IMP-1, 140 nM at NDM-1 and 110 nM on VIM-1.

Turning to `CCC[C@H](C(=O)O)[C@H](Cc1ccc(NCCN2CCCCC2)cc1)c1nn[nH]n1` [Example 217, (2S)-2-[(1S)-2-{4-[(2-piperidin-1-ylethyl)amino]phenyl}-1-(2H-tetrazol-5-yl)ethyl]pentanoic acid], the “IMP1 SM5741 MITC95” value in assay [1] was 50 µM. Further, in assay [2], the “NDM1 EC30016 MITC95” value was found to be 12.5 µM. Moreover, the “VIM1 KP599644 MITC95” value in assay [3] stood at 50 µM. For the same compound, the IC50 at IMP-1 worked out at 2400 nM; on NDM-1, 500 nM; at VIM-1, 38 nM.
